The values that follow come from patent US8729030B2 (Affymax, Inc., priority 2003, dated 2014).

Bridges are numbered along the chain shown (N, C = ends). Where no end group is shown, it is not given here. [ ]: non-standard residue; d: D form. 1Nal = N[C@@H](Cc1cccc2ccccc12)C(=O)O; Sar = CNCC(=O)O

Test [1] has as its target chimeric receptor comprising the extra-cellular portion of the human EPO receptor to the intra-cellular portion of the human GCSF receptor. As to the kind of experiment: Reporter assay (Baf3/EpoR/GCSFR fos/lux luciferase). Format: cell-based. The conditions noted are these: Table 2; Baf3/EpoR/GCSFR fos/lux cells, 4 h. From the text: This assay is based upon a on a murine pre-B-cell line derived reporter cell, Baf3/EpoR/GCSFR fos/lux. This reporter cell line expresses a chimeric receptor comprising the extra-cellular portion of the human EPO receptor to the intra-cellular portion of the human GCSF receptor. This cell line is further transfected with a fos promoter-driven luciferase reporter gene construct. Activation of this chimeric receptor through addition of erythropoietic agent results in the expression of the luciferase reporter gene, and therefore the production of light upon addition of the luciferase substrate luciferin. Thus, the level of EPO-R activation in such cells may be quantitated via measurement of luciferase activity.
The Baf3/EpoR/GCSFR fos/lux cells are cultured in DMEM/F12 medium (Gibco) supplemented with 10% fetal bovine serum (FBS; Hyclone), 10% WEHI-3 supernatant (the supernatant from a culture of WEHI-3 cells, ATCC #TIB-68), and penicillin/streptomycin. […] Following a 5-minute incubation, light emission is measured on a Packard Topcount Luminometer (Packard Instrument Co., Downers Grove, Ill.). Light counts are plotted relative to test peptide concentration and analysed using Graph Pad software. The concentration of test peptide that results in a half-maximal emission of light is recorded as the EC50 [See Table 2: Reporter EC50]. […]
(Reporter assays use an easily measured gene product as a stand-in for the process of interest.)

Test [2] concerns human, bone marrow derived CD34+ cells. The test can be described thus: C/BFU-e assay (erythroid colony formation). It counts as cell-based. Particulars: Table 2; colonies 90% of maximum relative to EPO control, 14 days. From the text: EPO-R signaling stimulates the differentiation of bone marrow stem cells into proliferating red blood cell presursors. This assay measures the ability of test peptides to stimulate the proliferation and differentiation of red blood cell precursors from primary human bone marrow pluripotent stem cells.
For this assay, serial dilutions of test peptide are made in IMDM medium (Gibco) supplemented with 10% FBS (Hyclone). […] The methylcellulose and peptide mixture is then vortexed thoroughly. Aliquots (100,000 cells/mL) of human, bone marrow derived CD34+ cells (Poietics/Cambrex) are thawed. The thawed cells are gently added to 0.1 mL of 1 mg/ml DNAse (Stem Cells) in a 50 mL tube. Next, 40-50 mL IMDM medium is added gently to cells: the medium is added drop by drop along the side of the 50 mL tube for the first 10 mL, and then the remaining volume of medium is slowly dispensed along the side of the tube. The cells are then spun at 900 rpm for 20 min, and the media removed carefully by gentle aspiration. The cells are resuspended in 1 ml of IMDM medium and the cell density per mL is counted on hemacytometer slide (10 μL aliquot of cell suspension on slide, and cell density is the average count×10,000 cells/ml). The cells are then diluted in IMDM medium to a cell density of 15,000 cells/mL. A 100 μL of diluted cells is then added to each 1.5 mL methyl cellulose plus peptide sample (final cell concentration in assay media is 1000 cells/mL), and the mixture is vortexed. Allow the bubbles in the mixture to disappear, and then aspirate 1 mL using blunt-end needle. Add 0.25 mL aspirated mixture from each sample into each of 4 wells of a 24-well plate (Falcon brand). Incubate the plated mixtures at 37° C. under 5% CO2 in a humid incubator for 14 days. Score for the presence of erythroid colonies using a phase microscope (5×-10× objective, final magnification of 100×).
EPO-R signaling stimulates the differentiation of bone marrow stem cells into proliferating red blood cell precursors. […]

Another test has as its target T1, EPO-R (Homo sapiens, UniProt P19235).
T1 construct: made in house; host or cells: Chinese Hamster Ovary cells
T1 sequence (P19235 25-250 limits assumed): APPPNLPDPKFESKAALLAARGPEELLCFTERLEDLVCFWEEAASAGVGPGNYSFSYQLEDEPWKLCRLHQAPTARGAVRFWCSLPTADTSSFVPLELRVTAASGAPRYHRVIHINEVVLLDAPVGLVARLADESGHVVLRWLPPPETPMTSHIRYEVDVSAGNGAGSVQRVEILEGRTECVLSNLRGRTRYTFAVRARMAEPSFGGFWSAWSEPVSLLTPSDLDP
The test can be described thus: Competitive binding assay (AlphaQuest bead proximity, AQ). The conditions noted are these: Table 2; competition with biotinylated EPO-R-binding peptide tracer. The text has this: Competitive binding calculations are made using an assay in which a light signal is generated as a function of the proximity of two beads: a streptavidin donor bead bearing a biotinylated EPO-R-binding peptide tracer and an acceptor bead to which is bound EPO-R. Light is generated by non-radiative energy transfer, during which a singlet oxygen is released from a first bead upon illumination, and contact with the released singlet oxygen causes the second bead to emit light. These bead sets are commercially available (Packard). Bead proximity is generated by the binding of the EPO-R-binding peptide tracer to the EPO-R. A test peptide that competes with the EPO-R-binding peptide tracer for binding to EPO-R will prevent this binding, causing a decrease in light emission.
In more detail the method is as follows: Add 4 μL of serial dilutions of the test EPO-R agonist peptide, or positive or negative controls, to wells of a 384 well plate. Thereafter, add 2 μL/well of receptor/bead cocktail. […]
Centrifuge 1 min to mix. […] After 18 hours read light emission using an AlphaQuest reader (Packard). […]

Take “peptide dimer of monomers (AcG)GLYACHMGPIT(1-nal)VCQPLR(MeG) (SEQ ID NO: 3) [Peptide III] (Ac-GGLYACHMGPIT[1Nal]VCQPLR[Sar]; disulfide 6-15 (inferred); not fully specified (residue 1); printed as (AcG)GLYACHMGPIT(1-nal)VCQPLR(MeG); also: homodimer, dimer linkage not given here)”: a half-maximal response in test [1] (EC50) required 0.15 nM. Besides, it took 2.7 nM to reach the 90% level in test [2] (EC90).

Regarding “peptide dimer of monomers (AcG)GLYACHMGPIT(1-nal)VCQPLR(MeG) (SEQ ID NO: 3) [Peptide II] (Ac-GGLYACHMGPIT[1Nal]VCQPLR[Sar]; disulfide 6-15 (inferred); not fully specified (residue 1); printed as (AcG)GLYACHMGPIT(1-nal)VCQPLR(MeG); also: homodimer, dimer linkage not given here)”, the IC50 (in general, the concentration that inhibits the measured activity by half) in the test with EPO-R came out at 0.11 nM. For the same substance, in test [2], it took 2.2 nM to reach the 90% level (EC90).
